The values below come from paper PMC7232165 (Viruses, 2020).

Molecules are shown by their SMILES. Read-outs that look alike come from different tables or passages of the source. Where only a bound is given, the exact number is not on record here.

For data set [1] the following is noted: HLMs; cited from earlier work.
The next data set has as its system HIV-1NL4-3. As to the kind of experiment: Anti-HIV-1 assay in TZM-GFP cells (LTR-activated GFP expression). To be noted: for EC50: read-out: EC50 (concentration of compound inhibiting HIV-1 replication by 50%); for antiviral activity against HIV-1 (in words): screened at 20 μM.
The next data set in a line: in vitro. In kind it is cell-based. To be noted: human, TZM-GFP cells, 72 h, XTT; mean ± standard deviation; read-out: CC50 (concentration of compound causing 50% cell death). For orientation: Formazan colour is commonly taken as a measure of viable cells.
For a further data set, the system named is TZM-GFP cells. As to the kind of experiment: in vitro. Type of data set: cell-based. To be noted: for CC50: TZM-GFP cells, 72 h, XTT, mean ± standard deviation, read-out: CC50 (concentration of compound causing 50% cell death).
For data set [2], the target named is covalently-crosslinked hexameric CA A14C/E45C/W184A/M185A (CA121) (Human immunodeficiency virus type 1 group M subtype B, UniProt P12493, A146C/E177C/M317A/W316A). Briefly: Thermal shift assay (TSA) for effect on HIV-1 CA hexamer stability. To be noted: compound 20 µM. In kind it is binding.
Data set [3] is described as follows: Microsomal stability assay, human liver microsomes. Type of data set: in vitro ADME. To be noted: for half-life at 1 µM: human liver microsomes. (In general: Liver microsomes are vesicles of endoplasmic reticulum, rich in cytochrome P450 enzymes.)
A short description of data set [4]: Microsomal stability assay, mouse liver microsomes. Type of data set: in vitro ADME.
Setting [5] is: Human immunodeficiency virus 1, 48 h.

Regarding `Cc1[nH]c2ccccc2c1CC(=O)N[C@@H](Cc1ccccc1)C(=O)N(C)c1ccccc1` [Compound 1, PF74, reference compound], in data set [1], the “half-life (t1/2) in human liver microsomes” value is recorded as “less than 1 min”. Moreover, in the data set on HIV-1NL4-3 (setting [5]), the EC50 was 0.61 ± 0.2 µM.
For the molecule `COC(=O)C1CCCN1C(=O)C(NC(=O)Cn1c(=O)[nH]c2ccccc2c1=O)C(C)C` (stereo not shown) [Compound 2], the CC50 at 72 h in the data set “in vitro” was more than 100 µM. The “cytotoxicity (in words)” value with TZM-GFP cells (screened at 100 μM) is given as “no cytotoxicity”. For the same molecule, the EC50 in the data set with HIV-1NL4-3 (setting [5]) was more than 20 µM. Further, the “antiviral activity against HIV-1 (in words)” value (from here on “antiviral activity”) with HIV-1NL4-3 is “no significant antiviral activity”.
For the molecule `COC(=O)[C@@H]1CCCN1C(=O)CNC(=O)Cn1c(=O)[nH]c2ccccc2c1=O` [Compound 3], the “effect on CA hexamer stability (in words)” value (“effect” for short) in data set [2] is listed as “complete loss of the CA hexamer stabilizing effect”. Further, in the data set “in vitro”, the CC50 at 72 h is more than 100 µM. In addition, in the data set with HIV-1NL4-3 (setting [5]), the EC50 is more than 20 µM.
For the molecule `COC(=O)[C@@H]1CCCN1C(=O)[C@H](Cc1cccc2cc[nH]c12)NC(=O)Cn1c(=O)[nH]c2ccccc2c1=O` [Compound 4], the CC50 at 72 h in the data set “in vitro” is less than 100 µM. Further, in the data set with HIV-1NL4-3 (setting [5]), the EC50 is more than 20 µM.
Take `COC(=O)[C@@H]1CCCN1C(=O)[C@H](Cc1cccc2cc[nH]c12)NC(=O)Cn1c(=O)[nH]c2ccccc2c1=O` [Compound 5]: the CC50 with TZM-GFP cells is more than 100 µM. Further, the EC50 in the data set on HIV-1NL4-3 (TZM-GFP cells, MOI = 1, 48 h, mean ± standard deviation, at least two independent experiments) was more than 20 µM.
For the molecule `COC(=O)[C@@H]1CCCN1C(=O)[C@H](CSCc1ccccc1)NC(=O)Cn1c(=O)[nH]c2ccccc2c1=O` [Compound 6], in data set [2], the “effect” value is “no such effect was observed”. Further, the CC50 at 72 h in the data set “in vitro” was more than 100 µM. Also, the EC50 with HIV-1NL4-3 (setting [5]) was more than 20 µM.
Take `CCC(C)[C@H](NC(=O)Cn1c(=O)[nH]c2ccccc2c1=O)C(=O)N1CCC[C@H]1C(=O)OC` (stereo partly shown) [Compound 7]: the “effect” value in data set [2] is listed as “no such effect was observed”. Further, the CC50 at 72 h in the data set “in vitro” is more than 100 µM. For the same molecule, the EC50 with HIV-1NL4-3 (setting [5]) is more than 20 µM.
Take `O=C(Cn1c(=O)[nH]c2ccccc2c1=O)N[C@@H](CSCc1ccccc1)C(=O)N1CCC[C@H]1C(=O)Nc1ccccc1` [Compound 8]: in “in vitro”, the CC50 at 72 h came out at 44 ± 5 µM. Further, in the data set on HIV-1NL4-3 (setting [5]), the EC50 is more than 20 µM.
For `O=C(Cn1c(=O)[nH]c2ccccc2c1=O)N[C@@H](Cc1cccc2cc[nH]c12)C(=O)N1CCC[C@H]1C(=O)Nc1ccccc1` [Compound 9], in that order: more than 100 µM and more than 20 µM.
As to `O=C(Cn1c(=O)[nH]c2ccccc2c1=O)N[C@@H](Cc1ccccc1)C(=O)N1CCC[C@H]1C(=O)Nc1ccccc1` [Compound 10], the “effect” value in data set [2] is recorded as “moderate CA hexamer stabilizing effects”. In the data set “in vitro”, the CC50 at 72 h is more than 100 µM. Further, in data set [3] (HLMs, relative to PF74), the “half-life (t1/2) in HLMs, fold longer than PF74” value was found to be 44 fold. Besides, the half-life at 1 µM in data set [3] (pH 7.4, with Cobicistat 0.5 µM (CYP3A inhibitor), in the presence of CYP3A inhibitor Cobicistat 0.5 µM, read-out: Phase I metabolic stability t1/2, HLM (+Cobi)) is more than 120 min; in data set [3] (pH 7.4, 1 µM compound, NADPH, read-out: Phase I metabolic stability t1/2, HLM), 31 min; in data set [4] (pH 7.4, mouse liver microsomes, 1 µM compound, NADPH, read-out: Phase I metabolic stability t1/2, MLM), 2.9 min; in data set [4] (pH 7.4, with Cobicistat 0.5 µM (CYP3A inhibitor), mouse liver microsomes, in the presence of CYP3A inhibitor Cobicistat 0.5 µM, read-out: Phase I metabolic stability t1/2, MLM (+Cobi)), 85 min. In the data set on HIV-1NL4-3 (setting [5]), the EC50 was determined as 1.6 ± 0.1 µM. The “antiviral potency (EC50), fold less than PF74” value in the data set with HIV-1NL4-3 (relative to PF74 EC50 = 0.61 μM) amounted to 2.5 fold. For the same molecule, the “antiviral activity” value in the data set on HIV-1NL4-3 is “significant anti-HIV-1 activities”.
Regarding `CN(C(=O)[C@H](Cc1ccccc1)NC(=O)Cn1c(=O)[nH]c2ccccc2c1=O)c1ccccc1` [Compound 11], the “effect” value in data set [2] is reported as “moderate CA hexamer stabilizing effects”. For the same molecule, in “in vitro”, the CC50 at 72 h is more than 100 µM. Besides, the EC50 in the data set on HIV-1NL4-3 (setting [5]) stood at 6.9 ± 0.8 µM. For the same molecule, the “antiviral activity” value in the data set on HIV-1NL4-3 was “significant anti-HIV-1 activities”.
As for `O=C(Cn1c(=O)[nH]c2ccccc2c1=O)N[C@@H](Cc1ccccc1)C(=O)Nc1ccccc1` [Compound 12], the “effect” value in data set [2] is “did not show activity in either assay”. Moreover, the CC50 in the data set with TZM-GFP cells was less than 100 µM. Further, in the data set with HIV-1NL4-3, the EC50 is more than 20 µM and the “antiviral activity” value is “did not show activity in either assay”.
With `CN(C(=O)[C@H](Cc1ccccc1)NC(=O)Cn1c(=O)[nH]c2ccccc2c1=O)c1ccc(F)cc1` [Compound 13], the “effect” value in data set [2] is “moderate CA hexamer stabilizing effects”. Moreover, in the data set on TZM-GFP cells, the CC50 is more than 100 µM. In the data set on HIV-1NL4-3, the EC50 was 8 ± 1.3 µM and the “antiviral activity” value was “significant anti-HIV-1 activities”.
As to `CC(C)C[C@H](NC(=O)Cn1c(=O)[nH]c2ccccc2c1=O)C(=O)N(C)c1ccccc1` [Compound 14], in the data set on TZM-GFP cells, the CC50 is more than 100 µM. Moreover, the EC50 with HIV-1NL4-3 is more than 20 µM.
Regarding `CC(C)C[C@H](NC(=O)Cn1c(=O)[nH]c2ccccc2c1=O)C(=O)Nc1ccccc1` [Compound 15], in the data set on TZM-GFP cells, the CC50 was more than 100 µM. Moreover, the EC50 in the data set on HIV-1NL4-3 was more than 20 µM.
The like results for `Cc1ccc(N(C)C(=O)[C@@H](NC(=O)Cn2c(=O)[nH]c3ccccc3c2=O)C(C)(C)C)cc1` [Compound 16] were, in that order, more than 100 µM and more than 20 µM.
The like results for `CC(C)(C)[C@H](NC(=O)Cn1c(=O)[nH]c2ccccc2c1=O)C(=O)Nc1ccccc1` [Compound 17] were, in that order, more than 100 µM and more than 20 µM.
Turning to `CCC(C)[C@H](NC(=O)Cn1c(=O)[nH]c2ccccc2c1=O)C(=O)N(C)c1ccccc1` (stereo partly shown) [Compound 18], the CC50 with TZM-GFP cells was more than 100 µM. Besides, in the data set on HIV-1NL4-3, the EC50 was more than 20 µM.
Take `CCC(C)[C@H](NC(=O)Cn1c(=O)[nH]c2ccccc2c1=O)C(=O)Nc1ccccc1` (stereo partly shown) [Compound 19]: in the data set on TZM-GFP cells, the CC50 was more than 100 µM. For the same molecule, the EC50 with HIV-1NL4-3 is more than 20 µM.
For `CCC(C)[C@H](NC(=O)Cn1c(=O)[nH]c2ccccc2c1=O)C(=O)N(C)c1ccc(Cl)cc1` (stereo partly shown) [Compound 20], in that order: more than 100 µM and more than 20 µM.
For `CCC(C)[C@H](NC(=O)Cn1c(=O)[nH]c2ccccc2c1=O)C(=O)Nc1ccc(-c2nnn[nH]2)cc1` (stereo partly shown) [Compound 21], in that order: more than 100 µM and more than 20 µM.
Consider `O=C(Cn1c(S)nnc1-c1ccccc1)NNc1ccccn1` [Compound 22], for which, in the data set “in vitro”, the CC50 at 72 h is more than 100 µM. In the data set on HIV-1NL4-3 (setting [5]), the EC50 is more than 20 µM.
The like results for `O=C(Cn1c(S)nnc1-c1ccccc1)NNc1ccccc1` [Compound 23] were, in that order, more than 100 µM and more than 20 µM.
The like results for `O=C(Cn1c(S)nnc1-c1ccccc1)NNc1ccc(F)cc1` [Compound 24] were, in that order, more than 100 µM and more than 20 µM.
The like results for `N#Cc1ccc(NNC(=O)Cn2c(S)nnc2-c2ccccc2)cc1` [Compound 25] were, in that order, more than 100 µM and more than 20 µM.
For the molecule `N#Cc1cccc(NNC(=O)Cn2c(S)nnc2-c2ccccc2)c1` [Compound 26], the CC50 at 72 h in “in vitro” was more than 100 µM. Also, in the data set with HIV-1NL4-3 (setting [5]), the EC50 is more than 20 µM.
The like results for `Cc1ccc(-c2nnc(S)n2CC(=O)NNc2ccccc2)cc1` [Compound 27] were, in that order, approximately 100 µM and more than 20 µM.
For `Cc1ccc(-c2nnc(S)n2CC(=O)NNc2ccc(F)cc2)cc1` [Compound 28], in that order: more than 100 µM and more than 20 µM.
For `Cc1ccc(-c2nnc(S)n2CC(=O)NNc2ccc(C#N)cc2)cc1` [Compound 29], in that order: more than 100 µM and more than 20 µM.
Consider `Cc1ccc(-c2nnc(S)n2CC(=O)NNc2ccc(-c3ccccc3)cc2)cc1` [Compound 30], for which, in the data set “in vitro”, the CC50 at 72 h is more than 100 µM. Moreover, the EC50 in the data set on HIV-1NL4-3 (setting [5]) was more than 20 µM.
The like results for `Cc1ccc(-c2nnc(S)n2CC(=O)NNc2ccccn2)cc1` [Compound 31] were, in that order, more than 100 µM and more than 20 µM.
The like results for `Cc1ccccc1-c1nnc(S)n1CC(=O)NNc1ccccc1` [Compound 32] were, in that order, more than 100 µM and more than 20 µM.
With `Cc1ccc(NNC(=O)Cn2c(S)nnc2-c2ccccc2C)cc1` [Compound 33], in “in vitro”, the CC50 at 72 h is more than 100 µM. Also, the EC50 in the data set on HIV-1NL4-3 (setting [5]) is more than 20 µM.
In the case of `Cc1ccccc1-c1nnc(S)n1CC(=O)NNc1ccc(C#N)cc1` [Compound 34], the CC50 at 72 h in the data set “in vitro” was more than 100 µM. Moreover, the EC50 in the data set on HIV-1NL4-3 (setting [5]) was more than 20 µM.
In the case of `O=C(Cn1c(S)nnc1-c1cccc2ccccc12)NNc1ccccc1` [Compound 35], the CC50 at 72 h in the data set “in vitro” was more than 100 µM. In the data set on HIV-1NL4-3 (setting [5]), the EC50 was more than 20 µM.
The like results for `O=C(Cn1c(S)nnc1-c1ccccc1)NNc1ccc(-c2ccccc2)cc1` [Compound 36] were, in that order, more than 100 µM and more than 20 µM.
The like results for `Cc1ccc(NNC(=O)Cn2c(S)nnc2-c2cccc3ccccc23)cc1` [Compound 37] were, in that order, more than 100 µM and more than 20 µM.
Turning to `N#Cc1ccc(NNC(=O)Cn2c(S)nnc2-c2cccc3ccccc23)cc1` [Compound 38], the CC50 at 72 h in the data set “in vitro” is more than 100 µM. Further, the EC50 in the data set with HIV-1NL4-3 (setting [5]) is more than 20 µM.
For `CN(NC(=O)Cn1c(S)nnc1-c1ccccc1)c1ccccc1` [Compound 39], in that order: more than 50 µM and more than 20 µM.
